# Measured values as given in patent US20060240404A1, “Methods of isolating genes encoding proteins of specific function and of screening for pharmaceutically active agents” (Yeda Research And Development Co. Ltd., priority 2000, published 2006).
# Tested on: translocation of fibrillar adhesion in GFP-tensin transfected HFF cells
# Assay: Correlation analysis of fibrillar adhesion dynamics in time-lapse movies of GFP-tensin transfected cells treated with acto-myosin inhibitors
# Format: cell-based
# Details: for duration till maximum respond after addition / translocation of fibrillar adhesion following addition: 2 mM Lat-A, 150 mM H-7 or 100 mM ML-7; for correlation between sequential frames following addition of inhibitor: Eq. 1, 2 mM Lat-A, 150 mM H-7 or 100 mM ML-7, before treatment <0.65
# Description: HFF cells were analyzed by time-lapse fluorescence recording starting 24 hours after transfection with GFP-tensin as described (10). During the recording different inhibitors of acto-myosin contractility were added ([…]) at the time point indicated by the first arrow, and washed out at the time point indicated by the second arrow. In each digital movie, a constant square frame (I) of […] containing only fibrillar adhesions without focal contacts was acquired as a function of time. Correlation was calculated between pairs of subsequent time points (It and It+1) for the duration of the movie. Correlation between It and It+1 was calculated (according to Eq. 1, where N=It and M=It+1). The graphs present this correlation as a function of time (t); and
# The basic idea of this novel approach is that correlation is a quantitative measure of image similarity. Correlation is defined as the normalized pixel-by-pixel multiplication of two normalized images M and N (Eq. 1), and it is higher when the similarity between the two images is higher. Thus, if, and only if, N and M are identical images the correlation gets its maximum value of 1. When N equals −M (inverted images) the correlation reaches its minimum value, −1, and when N and M are totally unrelated images the correlation approaches zero. The below correlation equation (Eq. 1) can be extended to evaluate the similarity of two images which, are displaced with respect to each other (Eq. 2). To illustrate how this can be applied to characterize dynamic processes consider 4 cases in which N and M are two images of the same field taken at two close time points: (i) a correlation which equals 1 indicates a lack of any change in the field (since N equals M); (ii) if all the objects in the field are translated one pixel along the x axis, such that Mx,y=Nx+1,y, the correlation defined above will be less then 1. Yet when the objects are bigger then one pixel they will overlap in the two images, and thus the value of the correlation between N and M will be still close to 1; (iii) if the objects are translated 100 pixels, such that Mx,y=Nx+100,y with no overlap between the objects in the two images, the correlation will be low. However there is a single translational vector ([a^max,b^max], Eq. 4), i.e. (1,0) for case (ii) and (100,0) for case (iii), that will bring the two images to perfectly overlap, Mx,y=Nx+a,y+b, and will raise the more general translated correlation (C, Eq. 2) back to its maximal value of unity; (iv) if the objects moved 100 pixels, but different ones moved to different directions, the correlation will be low for all possible translational vectors, since the two images never overlap.
# Inhibitors of acto-myosin contractility, like latrunculin-A (Lat-A), H-7 and ML-7, block the translocation of fibrilar adhesion (Zamir et al., Nature Cell Biology, Vol. 2, 191-196, 2000). In order to follow the kinetics of this effect a correlation analysis according to Eq. 1 was applied on digital movies of GFP-tensin transfected cells before, during and after treatments with inhibitors. Before treatment, fibrilar adhesions were highly dynamic and thus the correlation between two sequential frames was low (<0.65, FIG. 2). Following the addition of Lat-A, H-7 or ML-7 the translocation of fibrillar adhesion was inhibited, leading to higher correlation between sequential frames (˜0.78, 0.81 and 0.92 for Lat-A, H-7 and ML-7, respectively). The duration till maximum respond to Lat-A was relatively short (˜8 minutes after addition), while the respond to H-7 and ML-7 were more gradual (˜50 minutes after H-7 addition and ˜80 minutes after ML-7 addition). After washing-out the drugs, the translocation of fibrillar adhesion recovered and the correlation dropped back to lower levels. The recovery from H-7 was relatively fast (<20 minutes) while recovery from Lat-A and ML-7 took relatively long time (>80 minutes).
structure (smiles),measurement,setting,value
CC1CNCCN1S(=O)(=O)c1cccc2cnccc12 (stereo not shown) [H-7],duration till maximum respond after addition,,~50 min
same,translocation of fibrillar adhesion following addition,,inhibited
same,correlation between sequential frames following addition of inhibitor,,~0.81
same,recovery of fibrillar adhesion translocation after washing-out the drug,after wash-out,< 20 min
"C/C1=C/C(=O)O[C@@H]2C[C@@H](CC[C@H](C)/C=C\C=C\CC1)O[C@@](O)([C@@H]1CSC(=O)N1)C2 [Lat-A, latrunculin-A]",duration till maximum respond after addition,,~8 min
same,translocation of fibrillar adhesion following addition,,inhibited
same,correlation between sequential frames following addition of inhibitor,,~0.78
O=S(=O)(c1cccc2c(I)cccc12)N1CCCNCC1 [ML-7],duration till maximum respond after addition,,~80 min
same,translocation of fibrillar adhesion following addition,,inhibited
same,correlation between sequential frames following addition of inhibitor,,~0.92
